The test system of data set [1] is HLA-A2+ p53+ UMUC-14 cells. Nature of the data set: In vitro 24-hour incubation of UMUC-14 cells with chemotherapeutic agents. The format is cell-based, human. To be noted: G0/G1 cell cycle arrest. The protocol: The anti-tumor efficacy of multi-dose administration of […] (ALT-801), alone and in combination with gemcitabine and cisplatin, was evaluated on primary tumor growth in athymic nude mice bearing human bladder UMUC-14 and KU7P cells. Treatment with a gemcitabine and cisplatin regimen is the standard-of-care for patients with metastatic bladder cancer. To assess the in vitro effects of these chemotherapeutic agents on human bladder cancer cells, HLA-A2^+ p53^+ UMUC-14 cells were treated with gemcitabine and cisplatin, alone and in combination.

Data set [2] relates to UMUC-14 cells. Briefly: WST-1 cell proliferation assay, UMUC-14. The format is cell-based, human. Particulars: WST-1 reagent, 24 hours, read-out: IC50, inhibition of UMUC-14 cell growth. As to the method:
(§1) The sensitivity of the human bladder tumor cell lines to gemcitabine and cisplatin was further assessed using a cell proliferation assay. UMUC-14 and KU7P cells were plated in media containing various amounts of gemcitabine and cisplatin and cell proliferation was determined using the WST-1 reagent 24 hours later.
For orientation: Tetrazolium assays rely on reduction of a dye to a coloured formazan, in cell work by metabolically active cells.

In data set [3] the test system is KU7P cells. Briefly: WST-1 cell proliferation assay, KU7P. The format is cell-based, human. To be noted: WST-1 reagent, 24 hours, read-out: IC50, inhibition of KU7P cell growth. As to the method:
as §1

Data set [4] has as its system Gr1+CD11b+ MDSCs. Nature of the data set: Spleen Gr1+CD11b+ MDSCs after gemcitabine. The class given is in vivo, C57BL/6 mice. Particulars: 40 mg/kg i.v., three days after; untreated tumor-bearing 4.29 (±1.32), normal 1.19 (±0.25). As to the method: Gemcitabine is one of the drugs in the standard combination chemotherapy for muscle invasive bladder cancer. It has been reported that gemcitabine reduces myeloid-derived suppressor cells (MDSCs) in tumor-bearing mice. In this report, we studied the effect of gemcitabine on MDSCs induced by MB49luc cells in mice. MB49luc tumor-bearing mice were treated intravenously with gemcitabine at 40 mg/kg. Three days after gemcitabine treatment, splenocytes were isolated and the percentage of Gr1^+CD11b^+ MDSCs was determined by flow cytometry. The MDSCs accounted for 1.19 (±0.25) percent of the splenocytes in normal control mice without MB49luc tumors. These MDSCs increased to 4.29 (±1.32) percent of splenocytes in MB49luc tumor-bearing mice.

Data set [5] has as its system subcutaneous KU7P human bladder tumors. Nature of the data set: Subcutaneous KU7P xenograft, monotherapy. The class given is in vivo, nude mice. Particulars: Gem 40 mg/kg, MART-1scTCR/IL-2 2.19 mg/kg, ALT-801 1.6 mg/kg.
Data set [6] has as its system subcutaneous MB49G tumors. Briefly: Gemcitabine resistant subcutaneous MB49G tumor model. The format is in vivo, mice. To be noted: ALT-801 0.8 mg/kg (sub-optimal dose), gemcitabine 40 mg/kg. The text has this:
As potent suppressors of various immune cell functions, MDSCs are potential therapeutic targets for anticancer treatment. For example, gemcitabine, a widely-used chemotherapeutic, can selectively eliminate MDSCs in tumor-bearing animals and enhance tumor-suppressive immune activity (Suzuki et al., Clin Cancer Res, 11: 6713-6721, 2005).

For data set [7], the system named is MB49luc cells. Briefly: Effect of IFN-γ on MB49luc cells, Annexin V flow cytometry. The format is cell-based, mouse. Particulars: 1 or 10 ng/mL. The protocol:
In the second part of this study, the effect of IFN-γ on MB49luc cell growth was investigated. MB49luc cells (2×10^5/well) were cultured in RPMI-10 with IFN-γ at 1 or 10 ng/mL. The IFN-γ-treated MB49luc cells were harvested and stained with FITC-labeled Annexin V. The Annexin V positive apoptotic MB49luc cells were determined by flow cytometry.
(In general: Flow cytometry measures light scatter and fluorescence of single cells or particles in a stream.)

In general, IC50 refers to the midpoint of a concentration-inhibition curve.

Read-outs that look alike come from different tables or passages of the source.

Consider `N.N.[Cl][Pt][Cl]` [cisplatin], for which the UMUC-14 cell proliferation entry in data set [1] is on record as “dose dependent decrease”. Besides, the IC50 in data set [2] was 9.2 µM; in data set [3], 1.4 µM.

In the case of `Nc1ccn([C@@H]2O[C@H](CO)[C@@H](O)C2(F)F)c(=O)n1` [gemcitabine], in data set [4], the “spleen Gr1+CD11b+ MDSCs as percent of splenocytes” value is recorded as 1.83 (±0.92) percent. The “growth of subcutaneous KU7P tumors compared to PBS treated mice” value in data set [5] is reported as “statistically significant decrease”. For the same compound, in data set [6], the “tumor growth / progression compared to PBS treated mice” value was “did not significant differ”. In addition, the UMUC-14 cell proliferation result in data set [1] is “dose dependent decrease”. Besides, the IC50 in data set [2] (Homo sapiens, UMUC14) was 2030 µM; in data set [3] (Homo sapiens), 0.05 µM.

Take “IFN-γ: cytokine added to MB49luc cell cultures”: the “cytotoxicity against MB49luc cells (Annexin V positive apoptotic cells)” value in data set [7] is on record as “does not directly result in detectable cytotoxicity”.
